# Results as given in PubChem BioAssay AID2252 (Southern Research Specialized Biocontainment Screening …, 2010).
# Values joined by “and” are separate entries in the source; they are usually repeats but may differ in a detail not shown here. Equal values may be shown once.
# Tested on: THP-1 viability, CellTiter-Glo luminescence, 72 h
# Experiment: PubChem AID 2252
row,SMILES,EC50
1,C#CCOCCOCCOCCNc1nc(N2CCN(C(=O)CCCCCCCCCCNC(=O)[C@H]([C@@H](C)CC)n3cc(CCCCCN)nn3)CC2)nc(N2CCN(C(=O)CCCCCCCCCCNC(=O)[C@H]([C@@H](C)CC)n3cc(CCCCN=C(N)N)nn3)CC2)n1,5.17 µM
2,CCCCCOc1ccc(CSC(=N)N)cc1[N+](=O)[O-],14 µM
3,CN1CCN(CCCN2c3ccccc3Sc3ccc(Cl)cc32)CC1,14.7 µM and 10.2 µM
4,CCCSc1nc2cc(OC)c(OC)cc2c(=N)n1CCCN1CCOCC1,45.2 µM
5,CCCCCOc1ccc(CSC2=NCCN2)cc1[N+](=O)[O-],20 µM
6,CN(C)CCCN(C(=O)c1cc2cc([N+](=O)[O-])ccc2s1)c1nc2cc3c(cc2s1)OCCO3,3.04 µM
7,N=c1n(Cc2ccc(Cl)cc2)c2ccccc2n1CC(O)COc1ccccc1 (centres undefined),5.39 µM
8,S=C(NCc1ccc(Cl)cc1)Nc1ccncc1,40.1 µM
9,CCCNC1=C(C)C(=O)C2=C(C1=O)C(COC(N)=O)[C@]1(OC)C3NC3CN21 (some centres undefined),8.84 µM
10,COc1ccc(C(=O)N/N=C/c2sc3ccccc3c2O)cc1,3.36 µM
11,Oc1cccc(Nc2nc(NCC3CCCO3)c3ccccc3n2)c1 (centres undefined),1.36 µM
12,C#CCOCCOCCOCCNc1nc(N2CCN(C(=O)CCCCCCCCCCNC(=O)[C@H](CCCCN)n3cc(C)nn3)CC2)nc(N2CCN(C(=O)CCCCCCCCCCNC(=O)[C@H](CO)n3cc(CCCSC)nn3)CC2)n1,10.4 µM
13,CCN(CC)CCOC(=O)c1ccc(N/C=C(/C#N)c2nc(-c3ccc(OC)c(OC)c3)cs2)cc1,13.5 µM
14,O=C(CN1CC(c2ccccc2)CC1=O)N/N=C/c1cc(Br)ccc1O (centres undefined),3.85 µM
15,Cc1cnc(C(=O)Nc2nnc(C)s2)cn1,< 0.1 µM
16,Clc1ccc2c(c1)c1cc(Cl)ccc1n2CN1CCOCC1,27.2 µM
17,O=C(CCN1CCN(c2ccccc2)CC1)N/N=C/c1ccc([N+](=O)[O-])o1,43.9 µM
18,COc1ccc(CNC(=O)CCC(=O)N2C[C@H]3C[C@H](C2)c2cccc(=O)n2C3)cc1,< 0.1 µM
19,C#CCOCCOCCOCCNc1nc(N2CCN(C(=O)CCCCCCCCCCNC(=O)Cn3cc(C[C@@H](C)O)nn3)CC2)nc(N2CCN(C(=O)CCCCCCCCCCNC(=O)[C@@H]([C@H](C)CC)n3cc(CCCCCN)nn3)CC2)n1,9.97 µM
20,COc1cccc(CNCCc2c[nH]c3ccccc23)c1OCc1ccccc1,6.18 µM
21,CCCN(C(=O)CSc1nc2ccccc2n1CC)C1CCS(=O)(=O)C1 (centres undefined),14.8 µM
22,CCCCCNC(=O)c1cn(CC)c2cc(N3CCN(C)CC3)c(F)cc2c1=O,19.8 µM
23,CNCCC=C1c2ccccc2CCc2ccccc21,22.5 µM
24,N#CC1=C2N=C(N)c3ccccc3N2C2=C(C(=O)CCC2)C1c1cccc(Cl)c1 (centres undefined),27.1 µM
25,CCN(CC)CCSc1nnc2c3ccccc3n(Cc3ccccc3)c2n1,26.3 µM
26,OC(CNCc1ccco1)Cn1c2ccc(Br)cc2c2cc(Br)ccc21 (centres undefined),9.67 µM

row,SMILES,EC50
1,CN(C)CC/C=C1\c2ccccc2Sc2cc(F)c(Cl)cc21,10.8 µM
2,CCCCCCCCCCOC(=O)Cn1c(COc2ccc(Cl)cc2)[n+](C)c2ccccc21,1.92 µM
3,Oc1ccccc1-c1cc(C(F)(F)C(F)F)[nH]n1,46.4 µM
4,CO[C@H]1C=CO[C@@]2(C)Oc3c(C)c(O)c4c(O)c(c(C=NN5CCN(C)CC5)c(O)c4c3C2=O)NC(=O)C(C)=CC=C[C@H](C)[C@H](O)[C@@H](C)[C@@H](O)[C@@H](C)[C@H](OC(C)=O)[C@@H]1C,42.4 µM
5,O=C(Nc1nnc(-c2cccs2)o1)c1cccc(F)c1,16.9 µM
6,C#CCOCCOCCOCCNc1nc(N2CCN(C(=O)CCCCCCCCCCNC(=O)[C@H]([C@@H](C)CC)n3cc(CCCCN=C(N)N)nn3)CC2)nc(N2CCN(C(=O)CCCCCCCCCCNC(=O)[C@H](CO)n3cc(CCCCCN)nn3)CC2)n1,7.5 µM
7,O=C(Cc1ccc([N+](=O)[O-])cc1)N/N=C/c1ccc([N+](=O)[O-])o1,12.1 µM
8,CCN(CC)CCn1c(NCc2cc(OC)ccc2OC)nc2ccccc21,42.7 µM
9,COc1ccc(/C=N/Nc2cc(C)nc3c(C)cccc23)cc1,5.61 µM
10,O=C(/C=C/c1ccccc1)c1cc(Br)ccc(=O)c1O,10.5 µM
11,Cc1ccc(C(OCC(O)CNCc2ccc(F)cc2)c2ccccc2)cc1 (centres undefined),13 µM
12,c1ccc(CN2CCC(Nc3nc(-c4ccccc4)nc4ccccc34)CC2)cc1,17.6 µM
13,O=C(Nc1ccc(Cc2ccncc2)cc1)c1ccc([N+](=O)[O-])o1,4.02 µM
14,C[C@H]1c2cccc(O)c2C(O)=C2C(=O)[C@]3(O)C(O)=C(C(N)=O)C(=O)[C@@H](N(C)C)C3[C@@H](O)C21 (some centres undefined),27.5 µM
15,COc1ccc(C(=O)NC(=S)NNC(=O)c2cnccn2)cc1,2.98 µM
16,CN(C)CCCN(C(=O)COc1ccccc1)c1nc2ccc(Cl)cc2s1,46.8 µM
17,C/C(=N\NC(=O)c1ccccc1O)c1cccs1,22.7 µM
18,CCC(C)(c1ccc(C(=O)OC)s1)c1ccc(C(=O)OC)s1,49.7 µM
19,Cc1ccc(NC(=O)CS(=O)CC(=O)Nc2ccccc2-c2ccc(C)o2)cc1 (centres undefined),21.6 µM
20,Cc1ccc(C(c2cc(Cl)c3cccnc3c2O)N2CCN(C)CC2)cc1 (centres undefined),4.95 µM
21,O[C@@H](c1cc(C(F)(F)F)nc2c(C(F)(F)F)cccc12)[C@H]1CCCCN1,3.98 µM
22,Cc1cccc(Nc2cc(C)c3c(O)cccc3n2)c1C,5.35 µM
23,COc1cccc(/C=N/NC(=O)CSCC(=O)Nc2ccccc2)c1O,5.26 µM
24,COc1cccc(/C=N/NC(=O)CNC(=O)CCc2ccccc2)c1O,21.7 µM
25,COc1ccccc1Nc1nc(NCC2CCCO2)c2ccccc2n1 (centres undefined),14.1 µM
26,N/C(=N\N=C/c1ccc(F)cc1)N/N=C\c1ccc(F)cc1,19 µM

row,SMILES,EC50
1,Oc1ccc(COCc2ccccc2)c2cccnc12,1.24 µM
2,NC1=NC2=C(CCCC2)C2(CCCCC2)S1,37.4 µM
3,CN(C)CC/C=C1\c2ccccc2Sc2ccc(Cl)cc21,17 µM
4,Cc1cc2nc(C3CCN(CC4COc5ccccc5O4)CC3)[nH]c2cc1C (centres undefined),26.8 µM
5,CCOc1cc(CNC(C)(C)CO)cc(Br)c1OCc1ccc(Cl)cc1Cl,5.53 µM
6,O=C(CSc1ccccn1)Nc1nonc1[N+](=O)[O-],6.9 µM
7,CC1(C)CC(N2CCN(C(c3ccccc3)c3ccccc3)CC2)=CC(=[N+]2CCCCC2)C1,1.05 µM
8,COc1ccc(Nc2c3c(nc4ccc(C)cc24)CCC3)cc1,19 µM
9,CCCCC(CC)CN=C(N)NC(N)=NCCCCCCN=C(N)NC(N)=NCC(CC)CCCC (centres undefined),0.83 µM
10,Oc1c(C(Nc2ccccn2)c2cccnc2)cc(Cl)c2cccnc12 (centres undefined),6.1 µM
11,OCCN1CCN(C2Cc3cc(Cl)ccc3Sc3ccc(Cl)cc32)CC1 (centres undefined) (tested in a mixture with another compound),7.79 µM
12,Cc1cccc(NC(=O)C2CCCN2S(=O)(=O)c2ccc3c(c2)n(C)c(=O)c(=O)n3C)c1 (centres undefined),11 µM
13,CCCCOc1ccc(CN=C(N)N)cc1Cl,10.1 µM
14,Cc1ccc(C(=O)N/C(=C\c2ccc(-c3ccc(Br)cc3)o2)C(=O)NCCCN(C)C)cc1,4.18 µM
15,CC[C@@H](C)[C@H](CN[C@H](CNC)C(C)C)NC[C@@H](C)c1ccc(CC(C)C)cc1,5.96 µM
16,Cc1c(Cl)cccc1Nc1nc(NCCO)c2ccccc2n1,10.1 µM
17,O=C1c2c(O)ccc(O)c2C(=O)c2c(NCCNCCO)ccc(NCCNCCO)c21,< 0.1 µM
18,CCN(CC)c1cc(C)c2cc(NC(=O)c3ccccc3F)ccc2n1,8.98 µM
19,Cc1ccc(Nc2cc(C)c3c(O)cccc3n2)cc1C,23.8 µM
20,O=S1(=O)CC=C(CSc2nc3ccccc3[nH]2)C1,< 0.1 µM
21,CCCCCc1ccc(OCCC[n+]2ccccc2)c(CCCCC)c1,1.59 µM
22,CN(C)c1ccc(O)c2c1CC1CC3[C@@H](N(C)C)C(=O)C(C(N)=O)=C(O)[C@]3(O)C(=O)C1=C2O (some centres undefined),30.3 µM
23,COc1ccc(N=CC2=C(Nc3ccc(OC)cc3)c3c(C)nn(-c4ccccn4)c3CC2)cc1,2.16 µM
24,Cc1nc2ccccc2nc1N/N=C/c1ccc(O)cc1O,3.62 µM
25,Cc1ccc(C)c(NC(=O)CCC(=O)N/N=C/c2cc([N+](=O)[O-])ccc2O)c1,17.9 µM
26,CC(C)(c1ccccc1)c1ccc(OCCCN2CCNCC2)cc1,15.3 µM

row,SMILES,EC50
1,CCN(CCNCC(O)COc1ccccc1C(C)C)c1cccc(C)c1 (centres undefined),11 µM
2,CN(C)c1ccc2nc3ccc(=[N+](C)C)cc-3sc2c1,0.72 µM
3,C/C(=N/Nc1ccnc2cc(Cl)ccc12)c1ccc(N)cc1,8.34 µM
4,Cc1ccc(-c2cc(N)nc(-c3ccccc3)c2)cc1,28.6 µM
5,CC1CCC(C(C)C)C(OC(=O)C[n+]2cc(-c3ccc(Cl)cc3)n3c2CCC3)C1 (centres undefined),16.5 µM
6,Cc1cc(C)c2nc(C)cc(N/N=C/c3ccc(O)cc3)c2c1,1.91 µM
7,O=C(C[n+]1cc(Br)cc2ccccc21)c1ccc(F)cc1,< 0.1 µM
8,C/C(=N\N=C(N)N)c1ccc(Cl)c(Cl)c1,13.3 µM
9,CCOC(=O)c1ccccc1-n1c(C)cc(C2N=C(N)Nc3nc4ccccc4n32)c1C (centres undefined),6.21 µM
10,CN(C)CCCN(C(=O)c1ccc2c(c1)CCCC2)c1nc2ccc(Cl)cc2s1,9.82 µM
11,CN(C)CCCNC(=S)NCC(c1ccc(Cl)cc1Cl)c1c[nH]c2ccccc12 (centres undefined),3.66 µM
12,Cc1[nH]nc2c1C(c1ccc(-c3ccccc3C#N)o1)C(C#N)=C(N)O2 (centres undefined),30.6 µM
13,CCOc1ccc(/C=N/NC(=O)c2[nH]ncc2Br)c(O)c1,1.47 µM
14,O=c1[nH]c(-c2ccccn2)nc(C(F)(F)F)c1Br,11.5 µM
15,COc1ccc(C[C@H]2CN3C(=NC[C@H]3Cc3ccccc3)N2CCNC(=O)c2ccc(C)c(Br)c2)cc1,7.83 µM
16,CC(=O)c1c(C)nc(-c2cccc([N+](=O)[O-])c2)n1O,< 0.1 µM
17,c1cc2c(cc1Oc1nc(N3CCOCC3)nc(N3CCOCC3)n1)OCO2,< 0.1 µM
18,Cc1cccc2c1Sc1ccc(Cl)cc1CC2N1CCNCC1 (centres undefined),6.59 µM
19,O=C1C=C(Nc2ccccc2O)c2ccccc2C1=O,10.8 µM
20,Clc1ccc(-c2cc(C3CCNCC3)[nH]n2)c(Cl)c1,24.3 µM
21,COc1cc(Br)cc(C=Nc2cccc(C(F)(F)F)c2)c1O,50 µM
22,NC1=NC[C@H](Cc2ccc(O)cc2)N1CCC12CC3CC(CC(C3)C1)C2,13.2 µM
23,O=C(N=Nc1c(O)[nH]c2ccccc12)c1cc(-c2cccs2)[nH]n1,< 0.1 µM
24,Cc1cc([N+](=O)[O-])cc(/C=N/n2c(C)nc3ccccc3c2=O)c1O,28.2 µM
25,C#CCOCCOCCOCCNc1nc(N2CCN(C(=O)CCCCCCCCCCNC(=O)[C@H](CCCCN)n3cc(C[C@@H](C)CC)nn3)CC2)nc(N2CCN(C(=O)CCCCCCCCCCNC(=O)[C@H](CCCN=C(N)N)n3cc(C[C@@H](C)CC)nn3)CC2)n1,5.23 µM
26,Nc1nc2ccccc2n1CCOc1ccccc1Cl,16.6 µM
